Measured values reported in PubChem BioAssay AID1963864 (Molecular Pharmacology Branch, DTP, NCI, 2024).

System: KRAS PDC multicell spheroid viability
Test: Anticancer human tumor 521955-158-R6-J3-PDC patient-derived pancreatic carcinoma cell line growth inhibition [KRAS2]
Conditions: for viability, T/C: stronger effect = lower value
Summary of the method: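 Combination screen of spheroid viability in tumor-cell co-cultures with endothelial (HUVEC) and mesenchymal stem cell stroma. Each agent was tested in half-log dilutions, topping at clinical Cmax or at 10 microM without a known Cmax.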

[1] = curve of first compound, second compound 0.1 µM
[2] = curve of first compound, second compound 0.316 µM
[3] = curve of first compound, second compound 1 µM
[4] = curve of first compound, second compound 3.16 µM
[5] = curve of first compound, second compound 10 µM
[6] = second compound 0.1 µM, first compound 0.0316 µM
[7] = second compound 0.1 µM, first compound 0.1 µM
[8] = second compound 0.1 µM, first compound 0.316 µM
[9] = second compound 0.1 µM, first compound 1 µM
[10] = second compound 0.1 µM, first compound 3.16 µM
[11] = second compound 0.1 µM, first compound 10 µM
[12] = second compound 0.316 µM, first compound 0.0316 µM
[13] = second compound 0.316 µM, first compound 0.1 µM
[14] = second compound 0.316 µM, first compound 0.316 µM
[15] = second compound 0.316 µM, first compound 1 µM
[16] = second compound 0.316 µM, first compound 3.16 µM
[17] = second compound 0.316 µM, first compound 10 µM
[18] = second compound 1 µM, first compound 0.0316 µM
[19] = second compound 1 µM, first compound 0.1 µM
[20] = second compound 1 µM, first compound 0.316 µM
[21] = second compound 1 µM, first compound 1 µM
[22] = second compound 1 µM, first compound 3.16 µM
[23] = second compound 1 µM, first compound 10 µM
[24] = second compound 3.16 µM, first compound 0.0316 µM
[25] = second compound 3.16 µM, first compound 0.1 µM
[26] = second compound 3.16 µM, first compound 0.316 µM
[27] = second compound 3.16 µM, first compound 1 µM
[28] = second compound 3.16 µM, first compound 3.16 µM
[29] = second compound 3.16 µM, first compound 10 µM
[30] = second compound 10 µM, first compound 0.0316 µM
[31] = second compound 10 µM, first compound 0.1 µM
[32] = second compound 10 µM, first compound 0.316 µM
[33] = second compound 10 µM, first compound 1 µM
[34] = second compound 10 µM, first compound 3.16 µM
[35] = second compound 10 µM, first compound 10 µM
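Note: drug exposure lasted seven days.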
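Throughout, for viability, T/C: 100% = DMSO vehicle wells and lower means fewer viable cells.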

## COc1cc2nccc(Oc3ccc(NC(=O)C4(C(=O)Nc5ccc(F)cc5)CC4)cc3)c2cc1OC + COc1cc2nc(C)nc(NC(C)c3cc(N)cc(C(F)(F)F)c3)c2cc1OC1CCOC1
[1]
  IC50: > 10 µM
[2]
  IC50: > 10 µM
[3]
  IC50: > 10 µM
[4]
  IC50: > 10 µM
[5]
  IC50: < 0.0316 µM
[6]
  viability, T/C: 89.3%
[7]
  viability, T/C: 91.9%
[8]
  viability, T/C: 78.7%
[9]
  viability, T/C: 91.3%
[10]
  viability, T/C: 101%
[11]
  viability, T/C: 90.2%
[12]
  viability, T/C: 93.3%
[13]
  viability, T/C: 97.2%
[14]
  viability, T/C: 90.1%
[15]
  viability, T/C: 90.9%
[16]
  viability, T/C: 97.5%
[17]
  viability, T/C: 95.2%
[18]
  viability, T/C: 79.8%
[19]
  viability, T/C: 84.4%
[20]
  viability, T/C: 83.5%
[21]
  viability, T/C: 88.1%
[22]
  viability, T/C: 103%
[23]
  viability, T/C: 78.7%
[24]
  viability, T/C: 70.5%
[25]
  viability, T/C: 73.9%
[26]
  viability, T/C: 70.8%
[27]
  viability, T/C: 72.8%
[28]
  viability, T/C: 89.5%
[29]
  viability, T/C: 53.6%
[30]
  viability, T/C: 49.1%
[31]
  viability, T/C: 11.8%
[32]
  viability, T/C: 18.1%
[33]
  viability, T/C: 27.6%
[34]
  viability, T/C: 2.28%
[35]
  viability, T/C: 1.88%

## CC(=O)OC12COC1CC(O)C1(C)C(=O)C(O)C3=C(C)C(OC(=O)C(O)C(NC(=O)OC(C)(C)C)c4ccccc4)CC(O)(C(OC(=O)c4ccccc4)C21)C3(C)C (configuration not stated)
Compound 0.01 µM
  viability, T/C: 87.1% [middle of 5 runs]
Compound 0.0316 µM
  viability, T/C: 77.4% [middle of 5 runs]
Compound 0.1 µM
  viability, T/C: 73.6% [middle of 5 runs]
Compound 0.316 µM
  viability, T/C: 86.8% [middle of 5 runs]
Compound 1 µM
  viability, T/C: 101% [middle of 5 runs]
Compound 3.16 µM
  viability, T/C: 119% [middle of 5 runs]
Curve of compound
  IC50: > 3.16 µM

## Cn1nccc1Nc1nccc(-c2cc3c(s2)C(C)(C)N(CCN2CCOCC2)C3=O)n1 + CC1OCC2(CCN(c3cnc(Sc4ccnc(N)c4Cl)c(N)n3)CC2)C1N
[1]
  IC50: > 10 µM
[2]
  IC50: > 10 µM
[3]
  IC50: 7.94 µM
[4]
  IC50: 2.83 µM
[5]
  IC50: 1.51 µM
[6]
  viability, T/C: 89.8%
[7]
  viability, T/C: 93.9%
[8]
  viability, T/C: 94.2%
[9]
  viability, T/C: 81.2%
[10]
  viability, T/C: 68.4%
[11]
  viability, T/C: 62.6%
[12]
  viability, T/C: 93.9%
[13]
  viability, T/C: 95.5%
[14]
  viability, T/C: 90.3%
[15]
  viability, T/C: 67.4%
[16]
  viability, T/C: 63.7%
[17]
  viability, T/C: 57.1%
[18]
  viability, T/C: 88.4%
[19]
  viability, T/C: 98%
[20]
  viability, T/C: 82.2%
[21]
  viability, T/C: 72.2%
[22]
  viability, T/C: 53.7%
[23]
  viability, T/C: 49.2%
[24]
  viability, T/C: 82.1%
[25]
  viability, T/C: 88.4%
[26]
  viability, T/C: 72.7%
[27]
  viability, T/C: 59.9%
[28]
  viability, T/C: 47.8%
[29]
  viability, T/C: 47.7%
[30]
  viability, T/C: 93.2%
[31]
  viability, T/C: 86.6%
[32]
  viability, T/C: 71.9%
[33]
  viability, T/C: 53.6%
[34]
  viability, T/C: 43.4%
[35]
  viability, T/C: 39.5%
